PubChem BioAssay (NCI)
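Five concentrations, 48 hours, 96-well plates. GI50 is the concentration that inhibits growth by half. The concentration for full growth arrest is given as TGI.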

Key:
Assay in all cases: NCI tumour cell line growth inhibition, 48 h
[1] = tested on: DMS 114 small cell lung
[2] = tested on: DMS 273 small cell lung
[3] = tested on: M19-MEL melanoma
[4] = tested on: RPMI-8226 leukemia
[5] = tested on: SF-539 CNS
[6] = tested on: SK-MEL-2 melanoma
[7] = tested on: SNB-78 CNS
[8] = tested on: XF 498 CNS
[9] = tested on: CAKI-1 renal
[10] = tested on: CCRF-CEM leukemia
[11] = tested on: K-562 leukemia
[12] = tested on: SF-295 CNS
[13] = tested on: SNB-75 CNS
[14] = tested on: U251 CNS
[15] = tested on: DLD-1 colon
[16] = tested on: HOP-18 NSCLC

Structure (SMILES)	TGI [1]	TGI [2]	TGI [3]	TGI [4]	TGI [5]	TGI [6]	TGI [7]	TGI [8]	TGI [9]	GI50 [10]	TGI [10]	TGI [11]	TGI [12]	TGI [13]	TGI [14]	TGI [15]	TGI [16]
CCCCNC(=O)/N=C/c1c(O)c2ccccc2oc1=O	> 100 µM	> 100 µM	> 100 µM	> 100 µM	> 100 µM	66.1 µM	> 100 µM	65.1 µM									
O=C(N/N=C/c1cc(Br)cc(Br)c1[O-])c1ccccc1O.O=C(N/N=C/c1cc(Br)cc(Br)c1[O-])c1ccccc1O.[Ni+2]					0.72 µM	1.3 µM			1.53 µM	0.537 µM	> 100 µM	4.88 µM	1.11 µM	4.9 µM	1.84 µM		
COc1ccc(C[C@H](N)C(=O)N2C[C@@H](CO)C[C@@H](n3ccc(=O)[nH]c3=O)C2)cc1	> 100 µM	> 100 µM	> 100 µM	> 100 µM	> 100 µM	> 100 µM			> 100 µM		> 100 µM	> 100 µM			> 100 µM	> 100 µM	> 100 µM
COC1OC2=CCC3C(=O)NC(=O)C3C2[C@H](OCc2ccccc2)C1OCc1ccccc1 (some centres not stated)					31 µM	16.4 µM	4.12 µM						32.7 µM	31.5 µM	33.3 µM	3.71 µM	6.37 µM
